# Results taken from patent publication US10934274B2, “Quinoline derivatives as TAM RTK inhibitors” (Qurient Co., Ltd., priority 2015, dated 2021).
# Legend:
# Axl = target: T1, Axl (Homo sapiens, UniProt P30530); assay: LanthaScreen Eu kinase binding assay, Axl; details: Tracer 236
# T1 construct: purchased Life Technologies
# T1 sequence (P30530 26-894): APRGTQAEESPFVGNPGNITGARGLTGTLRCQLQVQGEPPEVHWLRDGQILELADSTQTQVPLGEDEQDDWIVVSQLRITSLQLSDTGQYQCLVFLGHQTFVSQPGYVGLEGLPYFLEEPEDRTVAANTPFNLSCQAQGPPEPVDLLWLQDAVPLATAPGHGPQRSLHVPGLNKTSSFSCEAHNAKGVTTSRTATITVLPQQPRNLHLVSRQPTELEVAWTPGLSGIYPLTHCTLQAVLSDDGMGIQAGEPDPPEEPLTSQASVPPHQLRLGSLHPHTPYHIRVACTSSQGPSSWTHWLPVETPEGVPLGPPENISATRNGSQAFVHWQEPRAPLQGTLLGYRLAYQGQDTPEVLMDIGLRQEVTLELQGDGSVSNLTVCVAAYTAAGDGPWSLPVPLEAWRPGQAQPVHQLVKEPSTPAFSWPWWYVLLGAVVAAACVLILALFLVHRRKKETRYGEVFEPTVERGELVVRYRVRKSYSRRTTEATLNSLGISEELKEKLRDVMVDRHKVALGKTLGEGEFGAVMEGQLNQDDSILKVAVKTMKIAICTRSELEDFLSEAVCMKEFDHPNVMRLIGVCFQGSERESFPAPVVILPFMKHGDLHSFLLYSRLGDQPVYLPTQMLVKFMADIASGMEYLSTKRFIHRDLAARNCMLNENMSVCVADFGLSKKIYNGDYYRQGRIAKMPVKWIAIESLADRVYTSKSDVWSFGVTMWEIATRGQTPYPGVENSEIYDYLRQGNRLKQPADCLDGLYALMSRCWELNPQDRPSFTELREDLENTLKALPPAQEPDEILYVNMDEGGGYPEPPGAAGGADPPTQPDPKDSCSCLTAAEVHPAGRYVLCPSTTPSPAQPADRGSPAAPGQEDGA
# Mer = target: T2, Mer (Homo sapiens, UniProt Q12866); assay: LanthaScreen Eu kinase binding assay, Mer; details: Tracer 236
# T2 construct: purchased Life Technologies
# T2 sequence (Q12866 21-999): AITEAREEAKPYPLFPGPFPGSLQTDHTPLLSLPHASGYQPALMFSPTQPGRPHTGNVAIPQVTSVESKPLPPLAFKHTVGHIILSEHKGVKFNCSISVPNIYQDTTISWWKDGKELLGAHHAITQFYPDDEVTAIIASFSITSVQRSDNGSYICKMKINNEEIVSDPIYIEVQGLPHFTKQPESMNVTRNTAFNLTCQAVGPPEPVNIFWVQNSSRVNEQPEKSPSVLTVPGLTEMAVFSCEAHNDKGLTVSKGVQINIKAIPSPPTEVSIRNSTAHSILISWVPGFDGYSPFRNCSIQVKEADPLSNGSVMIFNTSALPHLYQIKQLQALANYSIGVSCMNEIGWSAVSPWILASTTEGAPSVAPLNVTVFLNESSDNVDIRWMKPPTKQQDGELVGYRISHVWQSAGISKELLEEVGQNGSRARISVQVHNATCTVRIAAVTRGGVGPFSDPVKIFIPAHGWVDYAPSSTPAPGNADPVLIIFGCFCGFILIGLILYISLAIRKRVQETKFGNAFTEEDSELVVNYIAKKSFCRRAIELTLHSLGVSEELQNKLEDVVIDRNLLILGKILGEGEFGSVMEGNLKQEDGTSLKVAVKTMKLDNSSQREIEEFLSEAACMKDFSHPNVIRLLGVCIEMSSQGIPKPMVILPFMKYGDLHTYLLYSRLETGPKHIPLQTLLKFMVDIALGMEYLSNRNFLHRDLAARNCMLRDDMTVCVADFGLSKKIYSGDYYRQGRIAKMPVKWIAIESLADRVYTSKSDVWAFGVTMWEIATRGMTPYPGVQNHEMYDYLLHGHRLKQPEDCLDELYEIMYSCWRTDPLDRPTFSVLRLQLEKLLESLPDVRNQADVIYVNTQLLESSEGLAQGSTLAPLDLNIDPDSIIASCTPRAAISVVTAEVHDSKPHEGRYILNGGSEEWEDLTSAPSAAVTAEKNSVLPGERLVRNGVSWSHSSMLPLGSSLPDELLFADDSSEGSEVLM
# Met = target: T3, Met (Homo sapiens, UniProt P08581); assay: LanthaScreen Eu kinase binding assay, Met; details: Tracer 236, read-out: cMet kinase binding activity (Kd)
# T3 construct: purchased Life Technologies
# T3 sequence (P08581 25-1390): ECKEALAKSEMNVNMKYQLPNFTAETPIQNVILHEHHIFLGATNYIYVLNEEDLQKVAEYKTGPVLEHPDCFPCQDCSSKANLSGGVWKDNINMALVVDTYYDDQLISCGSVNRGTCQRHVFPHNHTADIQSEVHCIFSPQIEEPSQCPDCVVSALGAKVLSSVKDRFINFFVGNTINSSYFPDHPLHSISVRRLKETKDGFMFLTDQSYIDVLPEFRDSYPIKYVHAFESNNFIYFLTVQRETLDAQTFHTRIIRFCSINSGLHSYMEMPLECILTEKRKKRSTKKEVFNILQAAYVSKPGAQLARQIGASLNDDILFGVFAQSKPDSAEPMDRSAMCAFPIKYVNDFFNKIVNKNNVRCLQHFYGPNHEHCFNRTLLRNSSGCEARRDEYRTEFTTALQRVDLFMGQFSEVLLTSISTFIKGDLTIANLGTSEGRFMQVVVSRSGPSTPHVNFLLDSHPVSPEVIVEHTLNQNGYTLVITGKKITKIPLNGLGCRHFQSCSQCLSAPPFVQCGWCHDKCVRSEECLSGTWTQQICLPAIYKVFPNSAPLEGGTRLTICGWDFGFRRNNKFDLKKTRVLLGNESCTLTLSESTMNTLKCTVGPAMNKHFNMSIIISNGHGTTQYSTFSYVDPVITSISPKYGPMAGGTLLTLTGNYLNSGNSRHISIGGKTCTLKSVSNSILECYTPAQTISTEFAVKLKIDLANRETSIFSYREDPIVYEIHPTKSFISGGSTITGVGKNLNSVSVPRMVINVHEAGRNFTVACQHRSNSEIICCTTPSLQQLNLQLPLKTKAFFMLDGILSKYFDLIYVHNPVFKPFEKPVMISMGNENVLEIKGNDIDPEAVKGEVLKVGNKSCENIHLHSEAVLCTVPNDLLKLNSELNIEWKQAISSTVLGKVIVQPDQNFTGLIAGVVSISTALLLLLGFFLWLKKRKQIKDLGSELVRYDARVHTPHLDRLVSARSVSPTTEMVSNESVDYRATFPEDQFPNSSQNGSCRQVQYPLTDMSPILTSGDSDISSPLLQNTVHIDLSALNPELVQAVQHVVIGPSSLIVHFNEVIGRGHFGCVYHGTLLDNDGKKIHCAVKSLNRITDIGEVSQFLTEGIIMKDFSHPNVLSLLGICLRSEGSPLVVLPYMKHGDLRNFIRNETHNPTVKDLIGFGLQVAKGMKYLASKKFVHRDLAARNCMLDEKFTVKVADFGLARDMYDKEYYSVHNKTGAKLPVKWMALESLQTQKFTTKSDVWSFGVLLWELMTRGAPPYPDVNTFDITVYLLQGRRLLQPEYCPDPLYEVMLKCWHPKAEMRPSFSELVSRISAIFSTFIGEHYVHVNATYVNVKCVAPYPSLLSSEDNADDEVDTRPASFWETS
Compound,Kd (Axl) [nM],Kd (Mer) [nM],Kd (Met) [nM]
COc1cc2nccc(Oc3ccc(NC(=O)c4nn(-c5ccc(OC(F)(F)F)cc5Cl)cc4OCC(F)(F)F)nc3)c2cc1OC [Compound 186],100 to 1000,< 100,100 to 1000
CCOc1cn(-c2ccc(F)cc2CC)nc1C(=O)Nc1ccc(Oc2ccnc3cc(OC)c(OC)cc23)cn1 [Compound 112],< 100,< 100,< 100
CCOc1cn(-c2ccc(Cl)c(CN(C)C)c2)nc1C(=O)Nc1ccc(Oc2ccnc3cc(OC)c(OC)cc23)cn1 [Compound 126],< 100,< 100,< 100
CCOc1cn(-c2cnccc2Cl)nc1C(=O)Nc1ccc(Oc2ccnc3cc(OC)c(OC)cc23)cc1F [Compound 194],< 100,< 100,< 100
CCOc1cn(-c2cscn2)nc1C(=O)Nc1ccc(Oc2ccnc3cc(OC)c(OC)cc23)cn1 [Compound 13],< 100,< 100,< 100
CCOc1cn(-c2nccnc2Cl)nc1C(=O)Nc1ccc(Oc2ccnc3cc(OC)c(OC)cc23)cc1F [Compound 190],< 100,< 100,< 100
CCOc1cn(-c2cnccc2C(F)(F)F)nc1C(=O)Nc1ccc(Oc2ccnc3cc(OC)c(OC)cc23)cc1F [Compound 196],< 100,< 100,< 100
CCOc1cn(-c2ccc(OC(F)(F)F)cc2Cl)nc1C(=O)Nc1ccc(Oc2ccnc3cc(OC)c(OC)cc23)cn1 [Compound 115],< 100,< 100,< 100
CCOc1cn(-c2ccc(OC(F)(F)F)cc2Cl)nc1C(=O)Nc1ccc(Oc2ccnc3cc(OC)c(OC)cc23)cc1F [Compound 192],< 100,< 100,< 100
CCOc1cnn(-c2ccc(C(F)(F)F)cc2C(F)(F)F)c1C(=O)Nc1ccc(Oc2ccnc3cc(OC)c(OC)cc23)cn1 [Compound 110],< 100,100 to 1000,< 100
CCOc1cn(-c2cnccc2Cl)nc1C(=O)Nc1ccc(Oc2ccnc3cc(OC)c(OC)cc23)c(F)c1 [Compound 193],< 100,< 100,< 100
CCOc1cn(-c2cnccc2C)nc1C(=O)Nc1ccc(Oc2ccnc3cc(OC)c(OC)cc23)nn1 [Compound 210],< 100,< 100,< 100
CCOc1cn(-c2ccc(C)cc2F)nc1C(=O)Nc1ccc(Oc2ccnc3cc(OC)c(OC)cc23)cn1 [Compound 100],< 100,< 100,100 to 1000
CCOc1cn(-c2ccc(F)cc2C(F)(F)F)nc1C(=O)Nc1ccc(Oc2ccnc3cc(OC)c(OC)cc23)cn1 [Compound 104],< 100,< 100,< 100
CCOc1cn(-c2c(C)ccnc2C)nc1C(=O)Nc1ccc(Oc2ccnc3cc(OC)c(OC)cc23)cc1F [Compound 191],< 100,< 100,< 100
CCOc1cn(-c2cnccc2CO)nc1C(=O)Nc1ccc(Oc2ccnc3cc(OC)c(OC)cc23)cn1 [Compound 179],< 100,< 100,< 100
CCOc1cn(-c2c(C)ccnc2C)nc1C(=O)Nc1ccc(Oc2ccnc3cc(OC)c(OC)cc23)c(F)c1 [Compound 188],< 100,< 100,< 100
CCOc1cn(-c2ccc(F)cc2C(C)C)nc1C(=O)Nc1ccc(Oc2ccnc3cc(OC)c(OC)cc23)cn1 [Compound 125],< 100,< 100,< 100
CCOc1cn(-c2ccc(Cl)cc2C(F)(F)F)nc1C(=O)Nc1ccc(Oc2ccnc3cc(OC)c(OC)cc23)cn1 [Compound 101],< 100,< 100,< 100
CCOc1cn(-c2cn[nH]c2)nc1C(=O)Nc1ccc(Oc2ccnc3cc(OC)c(OC)cc23)cn1 [Compound 8],< 100,< 100,< 100

# Other lines, results leading:
Kd (Axl) [nM],Kd (Mer) [nM],Kd (Met) [nM],Compound
< 100,< 100,< 100,CCOc1cn(-c2ncc(Cl)cc2C#N)nc1C(=O)Nc1ccc(Oc2ccnc3cc(OC)c(OC)cc23)cn1 [Compound 133]
< 100,< 100,< 100,CCOc1cn(-c2nccnc2Cl)nc1C(=O)Nc1ccc(Oc2ccnc3cc(OC)c(OC)cc23)cn1 [Compound 177]
< 100,< 100,< 100,CCOc1cn(-c2cnccc2Cl)nc1C(=O)Nc1ccc(Oc2ccnc3cc(OC)c(OC)cc23)cn1 [Compound 183]
< 100,< 100,≥ 1000,CCOc1cn(-c2cccnc2)nc1C(=O)Nc1ccc(Oc2ccnc3cc(OC)c(OC(F)(F)F)cc23)cn1 [Compound 199]
< 100,< 100,100 to 1000,CCOc1cn(-c2ccc(N)nc2)nc1C(=O)Nc1ccc(Oc2ccnc3cc(OC)c(OC)cc23)cn1 [Compound 6]
< 100,< 100,< 100,CCOc1cn(-c2cncnc2C2CC2)nc1C(=O)Nc1ccc(Oc2ccnc3cc(OC)c(OC)cc23)cn1 [Compound 167]
< 100,< 100,100 to 1000,CCOc1cn(-c2ccc(C(C)C)cc2)nc1C(=O)Nc1ccc(Oc2ccnc3cc(OC)c(OC)cc23)cn1 [Compound 116]
< 100,< 100,≥ 1000,CCOc1cn(-c2ccc(C(F)(F)F)cc2C)nc1C(=O)Nc1ccc(Oc2ccnc3cc(OC)c(OC)cc23)cn1 [Compound 99]
< 100,< 100,< 100,COc1cc2nccc(Oc3ccc(NC(=O)c4nn(-c5cccnc5)cc4OCC(F)(F)F)nc3)c2cc1OC [Compound 185]
< 100,< 100,< 100,CCOc1cn(-c2ccc(Cl)c(C(=O)N(C)C)c2)nc1C(=O)Nc1ccc(Oc2ccnc3cc(OC)c(OC)cc23)cn1 [Compound 129]
< 100,< 100,< 100,CCOc1cn(-c2nccnc2C(F)(F)F)nc1C(=O)Nc1ccc(Oc2ccnc3cc(OC)c(OC)cc23)cn1 [Compound 162]
< 100,< 100,< 100,CCOc1cn(-c2cnccc2CO)nc1C(=O)Nc1ccc(Oc2ccnc3cc(OC)c(OC)cc23)cc1F [Compound 209]
< 100,< 100,≥ 1000,CCOc1cn(-c2cnc(CO)nc2)nc1C(=O)Nc1ccc(Oc2ccnc3cc(OC)c(OC)cc23)cn1 [Compound 96]
< 100,< 100,≥ 1000,CCOc1cn(-c2ccc(Cl)cc2Cl)nc1C(=O)Nc1ccc(Oc2ccnc3cc(OC)c(OC)cc23)cn1 [Compound 108]
< 100,< 100,< 100,CCOc1cn(-c2cnccc2C(C)(C)O)nc1C(=O)Nc1ccc(Oc2ccnc3cc(OC)c(OC)cc23)c(F)c1 [Compound 195]
< 100,< 100,< 100,CCOc1cn(-c2cnccc2C(C)(C)O)nc1C(=O)Nc1ccc(Oc2ccnc3cc(OC)c(OC)cc23)cc1F [Compound 197]
< 100,< 100,100 to 1000,CCOc1cn(-c2cncn2C)nc1C(=O)Nc1ccc(Oc2ccnc3cc(OC)c(OC)cc23)cn1 [Compound 11]
